In ChEMBL document CHEMBL1649312, “Absence of association between piperaquine in vitro responses and polymorphisms in the pfcrt, pfmdr1, pfmrp, and pfnhe genes in Plasmodium falciparum” (Antimicrob Agents Chemother, 2010) one finds IC50 data, which are given here for three compounds.

Assay type in all cases: functional, organism-based
In assay [1] the test system is Plasmodium falciparum. Put plainly: Antimalarial activity against Plasmodium falciparum IMT Vol assessed as inhibition of [3H] incorporation after 48 hrs by scintillation counter.
Assay [2] concerns Plasmodium falciparum. Put plainly: Antimalarial activity against Plasmodium falciparum IMT 31 assessed as inhibition of [3H] incorporation after 48 hrs by scintillation counter.
Assay [3] concerns Plasmodium falciparum. Put plainly: Antimalarial activity against Plasmodium falciparum IMT Bres assessed as inhibition of [3H] incorporation after 48 hrs by scintillation counter.
Assay [4] concerns Plasmodium falciparum. Put plainly: Antimalarial activity against Plasmodium falciparum IMT K14 assessed as inhibition of [3H] incorporation after 48 hrs by scintillation counter.
The test system of assay [5] is Plasmodium falciparum. The assay is described as follows: Antimalarial activity against Plasmodium falciparum IMT 10500 assessed as inhibition of [3H] incorporation after 48 hrs by scintillation counter.
The subject of assay [6] is Plasmodium falciparum. The assay is described as follows: Antimalarial activity against Plasmodium falciparum IMT A4 assessed as inhibition of [3H] incorporation after 48 hrs by scintillation counter.
Assay [7] deals with Plasmodium falciparum. The assay is described as follows: Antimalarial activity against Plasmodium falciparum IMT 9881 assessed as inhibition of [3H] incorporation after 48 hrs by scintillation counter.
Assay [8] deals with Plasmodium falciparum. Put plainly: Antimalarial activity against Plasmodium falciparum 3D7 assessed as inhibition of [3H] incorporation after 48 hrs by scintillation counter.
The subject of assay [9] is Plasmodium falciparum. Put plainly: Antimalarial activity against Plasmodium falciparum IMT K4 assessed as inhibition of [3H] incorporation after 48 hrs by scintillation counter.
Assay [10] has as its system Plasmodium falciparum. Put plainly: Antimalarial activity against Plasmodium falciparum IMT 16332 assessed as inhibition of [3H] incorporation after 48 hrs by scintillation counter.
Assay [11] has as its system Plasmodium falciparum. The assay is described as follows: Antimalarial activity against Plasmodium falciparum IMT L1 assessed as inhibition of [3H] incorporation after 48 hrs by scintillation counter.
Assay [12] relates to Plasmodium falciparum. The assay is described as follows: Antimalarial activity against Plasmodium falciparum 106/1 assessed as inhibition of [3H] incorporation after 48 hrs by scintillation counter.
Assay [13] deals with Plasmodium falciparum. The assay is described as follows: Antimalarial activity against Plasmodium falciparum IMT Guy assessed as inhibition of [3H] incorporation after 48 hrs by scintillation counter.
Assay [14] deals with Plasmodium falciparum. Put plainly: Antimalarial activity against Plasmodium falciparum HB3 assessed as inhibition of [3H] incorporation after 48 hrs by scintillation counter.
Assay [15] has as its system Plasmodium falciparum. Put plainly: Antimalarial activity against Plasmodium falciparum FCM29 assessed as inhibition of [3H] incorporation after 48 hrs by scintillation counter.
Assay [16] relates to Plasmodium falciparum. The assay is described as follows: Antimalarial activity against Plasmodium falciparum D6 assessed as inhibition of [3H] incorporation after 48 hrs by scintillation counter.
The test system of assay [17] is Plasmodium falciparum. The assay is described as follows: Antimalarial activity against Plasmodium falciparum W2 assessed as inhibition of [3H] incorporation after 48 hrs by scintillation counter.
In assay [18] the test system is Plasmodium falciparum. The assay is described as follows: Antimalarial activity against Plasmodium falciparum IMT 8425 assessed as inhibition of [3H] incorporation after 48 hrs by scintillation counter.
Assay [19] concerns Plasmodium falciparum. The assay is described as follows: Antimalarial activity against Plasmodium falciparum PA assessed as inhibition of [3H] incorporation after 48 hrs by scintillation counter.
Assay [20] relates to Plasmodium falciparum. The assay is described as follows: Antimalarial activity against Plasmodium falciparum IMT 10354 assessed as inhibition of [3H] incorporation after 48 hrs by scintillation counter.
Assay [21] relates to Plasmodium falciparum. The assay is described as follows: Antimalarial activity against Plasmodium falciparum IMT K2 assessed as inhibition of [3H] incorporation after 48 hrs by scintillation counter.

The structures appear in SMILES notation. pIC50: −log10 of the molar value.

The pIC50 is −log10 of the IC50, conventionally taken in molar units. On to `CCNCc1cc(Nc2ccnc3cc(Cl)ccc23)ccc1O` [DESETHYL AMODIAQUINE], for which the pIC50 with Plasmodium falciparum [1] was 7.09; in the assay with Plasmodium falciparum [2], 7.54; in the assay on Plasmodium falciparum [3] it was 6.98; with Plasmodium falciparum [4], 6.78; with Plasmodium falciparum [5], 7.40; in the assay with Plasmodium falciparum [6] it was 6.91. Further, the pIC50 in the assay on Plasmodium falciparum [7] is 7.47; in the assay on Plasmodium falciparum [8], 7.59; in the assay with Plasmodium falciparum [9], 6.95; in the assay with Plasmodium falciparum [10], 7.28; in the assay on Plasmodium falciparum [11], 7.07; in the assay on Plasmodium falciparum [12] it was 7.49. Moreover, the pIC50 in the assay with Plasmodium falciparum [13] was 7.35; in the assay with Plasmodium falciparum [14], 7.49; in the assay on Plasmodium falciparum [15], 6.50; in the assay with Plasmodium falciparum [16] it was 7.64; with Plasmodium falciparum [17], 6.87; in the assay with Plasmodium falciparum [18] it was 7.57. Moreover, the pIC50 in the assay with Plasmodium falciparum [19] was 6.92; in the assay with Plasmodium falciparum [20], 7.70.
As for `C[C@H]1c2cccc(O)c2C(=O)C2=C(O)[C@]3(O)C(=O)C(C(N)=O)=C(O)[C@@H](N(C)C)[C@@H]3[C@@H](O)[C@@H]21` [DOXYCYCLINE], the pIC50 in the assay with Plasmodium falciparum [1] was 5.04; with Plasmodium falciparum [4], 4.94; with Plasmodium falciparum [6] it was 5.04; in the assay with Plasmodium falciparum [7] it was 5.06; in the assay with Plasmodium falciparum [9], 4.99; in the assay with Plasmodium falciparum [10], 4.86. Also, the pIC50 in the assay on Plasmodium falciparum [15] is 4.94; in the assay on Plasmodium falciparum [18], 4.96; in the assay on Plasmodium falciparum [20] it was 5.34.
As for `C=C[C@H]1CN2CC[C@H]1C[C@H]2[C@H](O)c1ccnc2ccc(OC)cc12` [QUININE], the negative logarithm of the IC50 (pIC50) is 6.57 in the assay with Plasmodium falciparum [2]; 6.22 in the assay on Plasmodium falciparum [3]; 6.01 in the assay with Plasmodium falciparum [4]; 6.87 with Plasmodium falciparum [8]; 6.02 in the assay with Plasmodium falciparum [9]; 6.62 in the assay on Plasmodium falciparum [10]. For the same compound, the pIC50 was 6.87 with Plasmodium falciparum [12]; 6.49 with Plasmodium falciparum [13]; 6.22 in the assay with Plasmodium falciparum [21]; 7.32 with Plasmodium falciparum [16]; 6.86 in the assay with Plasmodium falciparum [18]; 6.93 in the assay on Plasmodium falciparum [20].
